# According to patent US20250368628A1, “METHODS AND COMPOUNDS FOR MODULATING INHERITED GENETIC DISEASES” (Design Therapeutics, Inc., priority 2022, published 2025):
# Like-named read-outs stand apart in the source and are kept apart here.
# Assays:
# [1] = tested on: Myotonic Dystrophy 1 affected patient fibroblasts (Coriel GM04602; 1600 CTG repeats); assay: DM1 foci reduction assay (EC50 assay; CAG10-Cy3 FISH, foci per nucleus); type: cell-based
# Outline: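 Foci per nucleus counted by 20× imaging of 4 areas per well, after overnight FISH with 5 nM CAG10-Cy3 and DAPI staining of fixed, permeabilized cells. DM1 fibroblasts (GM04602, 1600 CTG) were dosed 48 h at 37 °C, 8 points, 3-fold dilutions, 3 μM top concentration.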
# F35T cells = assay: Foci reduction in FECD (CAG10-Cy3 FISH, foci per nucleus); type: cell-based
# Outline: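 Foci per nucleus were counted by imaging after overnight CAG10-Cy3 FISH at 37 °C (30% formamide, 2×SSC) with DAPI counterstain, on PFA-fixed, ethanol-permeabilized F35T cells. The cells, seeded at 5000 per well in supplemented Opti-MEM, had received 8-point compound dilutions for 48 h at 37 °C.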
# [2] = Homo sapiens, Fibroblast; DM1 patient fibroblasts, 48 h treatment, foci per nucleus; read-out: DM1 EC50, 48 h
# [3] = F35T cells, 48 h treatment, foci per nucleus; read-out: FECD EC50, 48 h
# [4] = Homo sapiens, Fibroblast; DM1 patient fibroblasts, foci per nucleus, 48 h treatment; read-out: DM1 EC50, 48 h
# [5] = F35T cells, foci per nucleus, 48 h treatment; read-out: FECD EC50, 48 h
Compound,"EC50 [1, 2] [nM]",EC50 (F35T cells; [3]) [nM],"EC50 [1, 4] [nM]",EC50 (F35T cells; [5]) [nM]
Cn1cc(NC(=O)c2nc(NC(=O)CCNC(=O)c3cc(NC(=O)c4nccn4C)cn3C)cn2C)cc1C(=O)NCCCC(=O)Nc1cn(C)c(C(=O)NCCC(=O)Nc2cc(C(=O)Nc3cn(C)c(C(=O)NCCCNCC#Cc4cccc(C(=O)O)c4)n3)n(C)c2)n1 [Compound B-248],100 to 500,< 100,,
CCCNC(=O)CCNC(=O)c1nc(NC(=O)c2cc(NC(=O)CCNC(=O)c3nc(NC(=O)CCCNC(=O)c4cc(NC(=O)c5nc(NC(=O)CCNC(=O)c6cc(NC(=O)c7nccn7C)cn6C)cn5C)cn4CCC)cn3C)cn2C)cn1C [Compound B-320],< 100,< 100,,
Cn1cc(NC(=O)c2nccn2C)cc1C(=O)NCCC(=O)Nc1cn(C)c(C(=O)Nc2cc(C(=O)NC[C@H](N)CC(=O)Nc3cn(C)c(C(=O)NCCC(=O)Nc4cc(C(=O)Nc5cn(C)c(C(=O)NCCC(=O)N6CCC(C#CC#CC7CCNCC7)CC6)n5)n(C)c4)n3)n(C)c2)n1 [Compound B-419],,,100 to 500,< 100
Cn1cc(NC(=O)c2nc(NC(=O)CCNC(=O)c3cc(NC(=O)c4nccn4C)cn3C)cn2C)cc1C(=O)NCCCC(=O)Nc1cn(C)c(C(=O)NCCC(=O)Nc2cc(C(=O)Nc3cn(C)c(C(=O)NCCC(=O)NCC#CC#Cc4ccccc4)n3)n(C)c2)n1 [Compound B-134],< 100,< 100,,
CNC(=O)c1nc(NC(=O)c2cc(NC(=O)CCNC(=O)c3nc(NC(=O)CCCNC(=O)c4cc(NC(=O)c5nc(NC(=O)CCNC(=O)c6cc(NC(=O)c7nccn7C)cn6C)cn5C)cn4C)cn3C)cn2C)cn1C [Compound B-310],< 100,< 100,,
Cn1cc(NC(=O)c2nc(NC(=O)CCNC(=O)c3cc(NC(=O)c4nccn4C)cn3C)cn2C)cc1C(=O)NCCCC(=O)Nc1cn(C)c(C(=O)NCCC(=O)Nc2cc(C(=O)Nc3cn(C)c(C(=O)NCCC(=O)OCC(N)(CO)CO)n3)n(C)c2)n1 [Compound B-73],500 to 1000,> 1000,,
CCCNC(=O)c1nc(NC(=O)c2cc(NC(=O)CCNC(=O)c3nc(NC(=O)[C@H](N)CCNC(=O)c4cc(NC(=O)c5nc(NC(=O)CCNC(=O)c6cc(NC(=O)c7nccn7C)cn6C)cn5C)cn4C)cn3C)cn2C)cn1C [Compound B-409],< 100,< 100,,
COCCOCCOCCOCCN(CCCCCn1cc(NC(=O)CCNC(=O)c2nc(NC(=O)CCCNC(=O)c3cc(NC(=O)c4nc(NC(=O)CCNC(=O)c5cc(NC(=O)c6nccn6C)cn5C)cn4C)cn3C)cn2C)cc1C(=O)Nc1cn(C)c(C(=O)NCCC(=O)N2CCC(N3CCNCC3)CC2)n1)CCOCCOCCOCCOC [Compound B-158],> 1000,> 1000,,
CCNC(=O)c1nc(NC(=O)c2cc(NC(=O)CCNC(=O)c3nc(NC(=O)CCCNC(=O)c4cc(NC(=O)c5nc(NC(=O)CCNC(=O)c6cc(NC(=O)c7nccn7C)cn6C)cn5C)cn4C)cn3C)cn2C)cn1C [Compound B-312],< 100,< 100,,
CCN(CC)CCCC[C@H](NC(C)=O)C(=O)Nc1ccc(CNC(=O)CCNC(=O)c2nc(NC(=O)c3cc(NC(=O)CCNC(=O)c4nc(NC(=O)CCCNC(=O)c5cc(NC(=O)c6nc(NC(=O)CCNC(=O)c7cc(NC(=O)c8nccn8C)cn7C)cn6C)cn5C)cn4C)cn3C)cn2C)cc1 [Compound B-149],100 to 500,> 1000,,
CCCNC(=O)c1nc(NC(=O)c2cc(NC(=O)CCNC(=O)c3nc(NC(=O)C[C@@H](N)CNC(=O)c4cc(NC(=O)c5nc(NC(=O)CCNC(=O)c6cc(NC(=O)c7nccn7C)cn6C)cn5C)cn4C)cn3C)cn2C)cn1C [Compound B-421],,,< 100,< 100
CCN(CC)CCCC[C@H](NC(=O)C(C)(C)C)C(=O)NCCOCCOCCOCCOCCOCCNC(=O)CCNC(=O)c1nc(NC(=O)c2cc(NC(=O)CCNC(=O)c3nc(NC(=O)CCCNC(=O)c4cc(NC(=O)c5nc(NC(=O)CCNC(=O)c6cc(NC(=O)c7nccn7C)cn6C)cn5C)cn4C)cn3C)cn2C)cn1C [Compound B-90],500 to 1000,> 1000,,
CCN(CC)CCCC[C@H](NC(C)=O)C(=O)Nc1ccc(OCCOCCOCCNC(=O)CCNC(=O)c2nc(NC(=O)c3cc(NC(=O)CCNC(=O)c4nc(NC(=O)CCCNC(=O)c5cc(NC(=O)c6nc(NC(=O)CCNC(=O)c7cc(NC(=O)c8nccn8C)cn7C)cn6C)cn5C)cn4C)cn3C)cn2C)cc1 [Compound B-147],100 to 500,100 to 500,,
CC(C)N1CCC(C#CC#CC2CCN(CCOCCOCCOCCNC(=O)CCNC(=O)c3nc(NC(=O)c4cc(NC(=O)CCNC(=O)c5nc(NC(=O)CCCNC(=O)c6cc(NC(=O)c7nc(NC(=O)CCNC(=O)c8cc(NC(=O)c9nccn9C)cn8C)cn7C)cn6C)cn5C)cn4C)cn3C)CC2)CC1 [Compound B-124],100 to 500,500 to 1000,,
Cn1cc(NC(=O)c2nc(NC(=O)CCNC(=O)c3cc(NC(=O)c4nccn4C)cn3C)cn2C)cc1C(=O)NCCCC(=O)Nc1cn(C)c(C(=O)NCCC(=O)Nc2cc(C(=O)Nc3cn(C)c(C(=O)NCCC(=O)N4CCN(CCOCCOCCOCCOCCNC(=O)OC(C)(C)C)CC4)n3)n(C)c2)n1 [Compound B-27],100 to 500,100 to 500,,
CCCCn1cc(NC(=O)c2nc(NC(=O)CCNC(=O)c3cc(NC(=O)c4nccn4C)cn3C)cn2C)cc1C(=O)NCCCC(=O)Nc1cn(C)c(C(=O)NCCC(=O)Nc2cc(C(=O)Nc3cn(C)c(C(=O)NCCC(=O)N4CCCCC4)n3)n(C)c2)n1 [Compound B-433],,,< 100,< 100
Cn1cc(NC(=O)c2nc(NC(=O)CCNC(=O)c3cc(NC(=O)c4nccn4C)cn3C)cn2C)cc1C(=O)NCCCC(=O)Nc1cn(C)c(C(=O)NCCC(=O)Nc2cc(C(=O)Nc3cn(C)c(C(=O)NCCC(=O)NCC#CC#Cc4ccc(N)cc4)n3)n(C)c2)n1 [Compound B-132],< 100,< 100,,
COCCOCCOCCOCCN(CCCCCn1cc(NC(=O)c2nc(NC(=O)CCNC(=O)c3cc(NC(=O)c4nccn4C)cn3C)cn2C)cc1C(=O)NCCCC(=O)Nc1cn(C)c(C(=O)NCCC(=O)Nc2cc(C(=O)Nc3cn(C)c(C(=O)NCCC(=O)NCCOCCOCCOCCN4CCC(C#CC#CC5CCN(C(=O)OC(C)(C)C)CC5)CC4)n3)n(C)c2)n1)CCOCCOCCOCCOC [Compound B-226],100 to 500,100 to 500,,
CC(=O)N1CCC(C#CC#CC2CCN(C(=O)CCNC(=O)c3nc(NC(=O)c4cc(NC(=O)CCNC(=O)c5nc(NC(=O)CCCNC(=O)c6cc(NC(=O)c7nc(NC(=O)CCNC(=O)c8cc(NC(=O)c9nccn9C)cn8C)cn7C)cn6CCCOCCN)cn5C)cn4C)cn3C)CC2)CC1 [Compound B-302],< 100,< 100,,
COCCOCCOCCOCCN(CCOCCOCCOCCOC)C(=O)CCCCn1cc(NC(=O)c2nc(NC(=O)CCNC(=O)c3cc(NC(=O)c4nccn4C)cn3C)cn2C)cc1C(=O)NCCCC(=O)Nc1cn(C)c(C(=O)NCCC(=O)Nc2cc(C(=O)Nc3cn(C)c(C(=O)NCCC(=O)N4CCC(N5CCNCC5)CC4)n3)n(C)c2)n1 [Compound B-164],500 to 1000,100 to 500,,
CC(=O)NCCCCCCn1cc(NC(=O)c2nc(NC(=O)CCNC(=O)c3cc(NC(=O)c4nccn4C)cn3C)cn2C)cc1C(=O)NCCCC(=O)Nc1cn(C)c(C(=O)NCCC(=O)Nc2cc(C(=O)Nc3cn(C)c(C(=O)NCCC(=O)N4CCC(C#CC#CC5CCN(C(=O)OC(C)(C)C)CC5)CC4)n3)n(C)c2)n1 [Compound B-356],> 1000,500 to 1000,,
CCCNC(=O)CCNC(=O)c1nc(NC(=O)c2cc(NC(=O)CCNC(=O)c3nc(NC(=O)CCCNC(=O)c4cc(NC(=O)c5nc(NC(=O)CCNC(=O)c6cc(NC(=O)c7nccn7C)cn6C)cn5C)cn4CC)cn3C)cn2C)cn1C [Compound B-318],100 to 500,< 100,,
CN(CCCNC(=O)CCNC(=O)c1nc(NC(=O)c2cc(NC(=O)CCNC(=O)c3nc(NC(=O)CCCNC(=O)c4cc(NC(=O)c5nc(NC(=O)CCNC(=O)c6cc(NC(=O)c7nccn7C)cn6C)cn5C)cn4C)cn3C)cn2C)cn1C)CCCNC(=O)c1cccc(C(=O)O)c1 [Compound B-35],500 to 1000,100 to 500,,
CCCNC(=O)CCNC(=O)c1nc(NC(=O)c2cc(NC(=O)CCNC(=O)c3nc(NC(=O)CCCNC(=O)c4cc(NC(=O)c5nc(NC(=O)CCNC(=O)c6cc(NC(=O)c7nccn7C)cn6C)cn5C)cn4CCCOCCNC(C)=O)cn3C)cn2C)cn1C [Compound B-304],< 100,< 100,,
CC(C)CCC(=O)N1CCC(C#CC#CC2CCN(CCOCCOCCOCCNC(=O)CCNC(=O)c3nc(NC(=O)c4cc(NC(=O)CCNC(=O)c5nc(NC(=O)CCCNC(=O)c6cc(NC(=O)c7nc(NC(=O)CCNC(=O)c8cc(NC(=O)c9nccn9C)cn8C)cn7C)cn6C)cn5C)cn4C)cn3C)CC2)CC1 [Compound B-169],100 to 500,100 to 500,,
Cn1cc(NC(=O)c2nc(NC(=O)CCNC(=O)c3cc(NC(=O)c4nccn4C)cn3C)cn2C)cc1C(=O)NCCCC(=O)Nc1cn(C)c(C(=O)NCCC(=O)Nc2cc(C(=O)Nc3cn(C)c(C(=O)NCCC(=O)N4CC=C(C#CC5CCNCC5)CC4)n3)n(C)c2)n1 [Compound B-348],500 to 1000,100 to 500,,
COCCOCCOCCOCCOCCOCCOc1ccccc1C#CCNCCCNC(=O)c1nc(NC(=O)c2cc(NC(=O)CCNC(=O)c3nc(NC(=O)CCCNC(=O)c4cc(NC(=O)c5nc(NC(=O)CCNC(=O)c6cc(NC(=O)c7nccn7C)cn6C)cn5C)cn4C)cn3C)cn2C)cn1C [Compound B-414],,,100 to 500,< 100
